Measurements published in patent US20180042249A1, “METHOD FOR REDUCTION IN MICROBIAL ACTIVITY IN POULTRY PROCESSING” (Zeco, Inc., priority 2014, published 2018).

Test system: bacterial count on poultry carcasses (chicken samples)
Experiment: Antimicrobial efficacy of elevated concentration and temperature application of PAA to poultry carcasses (average bacterial count reduction)
Format: cell-based
Protocol: As summarized in Table 1 below, ten chicken samples were treated with an elevated peroxyacetic acid concentration at an elevated temperature for a specified period of time using either an equilibrium peroxyacetic acid intervention solution or a pH modified peroxyacetic acid intervention solution. […] The treated poultry carcasses were measured for the average bacterial count reduction as a result of the elevated peroxyacetic acid concentration and elevated temperature.

peroxyacetic acid [PAA]
Average % Reduction (bacterial count) (PAA 500 ppm, 72 °F, 10 seconds exposure, pH 7.7 (pH modified PAA solution)): 97.34%
Average % Reduction (bacterial count) (PAA 500 ppm, 72 °F, 10 seconds exposure, pH ~3 (equilibrium PAA solution)): 70.57%
Average % Reduction (bacterial count) (PAA 500 ppm, 125 °F, 7 seconds exposure, pH 7.7 (pH modified PAA solution)): 93.68%
Average % Reduction (bacterial count) (PAA 500 ppm, 125 °F, 7 seconds exposure, pH ~3 (equilibrium PAA solution)): 77.26%
Average % Reduction (bacterial count) (PAA 600 ppm, 125 °F, 7 seconds exposure, pH 7.7 (pH modified PAA solution)): 89.34%
Average % Reduction (bacterial count) (PAA 600 ppm, 125 °F, 7 seconds exposure, pH ~3 (equilibrium PAA solution)): 61.94%
Average % Reduction (bacterial count) (PAA 700 ppm, 125 °F, 7 seconds exposure, pH 7.7 (pH modified PAA solution)): 97.87%
Average % Reduction (bacterial count) (PAA 700 ppm, 125 °F, 7 seconds exposure, pH ~3 (equilibrium PAA solution)): 92.27%
bacterial count reduction (elevated PAA concentration and temperature, period of time of at least 7 seconds (summary of Table 1)): ≥ 60%
